Reference: patent publication US5242912A, “Cyclic anthranilic acid derivatives and process of preparing the same” (Kyorin Pharmaceutical Co., Ltd., priority 1989, dated 1993)
pIC50: −log10 of the molar value.

Experiments:
[1] = test system: bone resorption; test: Inhibitory action against bone resorption (45Ca release from embryo front arm bone, IL-1β); type: cell-based; conditions: Rattus norvegicus; 25 μg/ml, with interleukin-1β, 72 hours; read-out: Inhibitory rate against bone resorption (%)
Protocol: Inhibitory action against bone resorption
According to Raisz et al method (J. Clin. Invest., 155, 103 (1965)), bone piece of front arm of […] labelled with radioactive calcium (^45 Ca) was prepared in order to measure bone resorption. That is, the radioactive calcium (^45 CaCl2; 200 μCi) was injected under the skin to the back of rats in the 17th day of pregnancy and two days later they were killed with exsanguination by cutting of the carotid artery thereof. After the embryos were picked up and washed with sterilized phosphated buffer solution, the bone of front arm was taken out, which was then rendered free of the attached muscle and cartilage of the both ends, and said piece of bone was cultivated in the culture medium of BGJb.
Next, according to the method of Tsuda et al (J. Bone Miner. Metab., 1, 207 (1986)), the effect of the present invention compound against the bone resorption was determined, which are described as follows.
The piece of bone was put on a milipore-filter, and was pre-cultivated, in a well with 24 holes plate accomodating 0.6 ml culture medium of BGJb, at 37° C. and under 5% carbon dioxide. After the precultivation for 24 hours, said bone with the filter were transferred into a test culture medium added with interleukin-1β (1L-1β) or with both 1L-1β and drugs and the cultivation was continued. After 72 hours cultivation in said test culture medium, 0.3 ml of the supernatant was taken out and ^45 Ca released from the piece of bone was determined. After the piece of bone was immersed in 0.3 ml of 1N hydrochloric acid for more than 1.5 hours, 10 ml of ACSII was added thereto and the radioactivity was determined. Furthermore, the activity of bone resorption was represented by the ratio (percentage) of ^45 Ca released in the supernatant of cultivation to the total radioactivity which had been contained in the piece of bone (the sum of radioactivities in the piece of bone and the supernatant of cultivation). […]

[2] = test system: vascular permeability; test: Inhibition of increased vascular permeability (acetic acid i.p., Evans blue dye leakage); type: in vivo, Male ddy mice; conditions: 100 mg/kg p.o., N = 9
Protocol: Inhibition of increased vascular permeability
Male ddy mice (6 weeks of age) were used in this experiment. Example 9 compound suspended in 5% gum arabic solution was administered p.o., 45 minutes before the i.v. injection of 1.0% Evans blue solution (0.1 ml/10 g B.W.). Immediately after the i.v. injection, 1.0% acetic acid solution was administered i.p. (0.1 ml/10 g B.W.). The mice were killed 30 minutes after the acetic acid injection. Peritoneal exudate was collected by washing out the peritoneal cavity with physiological saline and centrifuged at 3,000 r.p.m. After the centrifugation, spectrophotometry of the supernatant was measured at 630 nm. Results were expressed as dye leakage and percent inhibition.

[3] = target: Bovine serum albumin (Bos taurus, UniProt P02769); test: biochemical
Sequence of Bovine serum albumin (P02769 25-607): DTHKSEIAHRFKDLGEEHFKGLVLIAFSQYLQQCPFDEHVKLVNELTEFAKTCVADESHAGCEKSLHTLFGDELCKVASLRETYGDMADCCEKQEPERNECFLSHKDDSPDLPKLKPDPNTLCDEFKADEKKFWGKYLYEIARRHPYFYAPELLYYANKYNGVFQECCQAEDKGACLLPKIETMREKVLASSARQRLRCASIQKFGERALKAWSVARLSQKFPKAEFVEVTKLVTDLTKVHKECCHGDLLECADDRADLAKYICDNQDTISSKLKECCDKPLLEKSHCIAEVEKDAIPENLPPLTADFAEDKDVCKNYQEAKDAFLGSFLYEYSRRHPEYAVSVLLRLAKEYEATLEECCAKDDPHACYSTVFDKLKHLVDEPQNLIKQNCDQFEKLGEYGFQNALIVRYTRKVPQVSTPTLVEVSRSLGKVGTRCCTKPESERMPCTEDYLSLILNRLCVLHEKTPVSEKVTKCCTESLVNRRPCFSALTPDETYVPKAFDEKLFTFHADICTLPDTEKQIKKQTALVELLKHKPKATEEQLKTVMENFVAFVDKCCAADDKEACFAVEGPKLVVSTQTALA
Protocol: Inhibitory action against thermal denaturation of protein
Bovine serum albumin was dissolved into 1/15M phosphoric acid buffer solution, which was then adjusted to 0.7%. After adding the solution of the present invention compound thereto, it was heated at 65° C. for 7-8 minutes. After cooled, the absorbance at 660 nm was measured, compared with the absorbance of the reference to derive the inhibitory rate and then the concentration necessary to inhibit 50% was obtained.

pIC50 [3] | Compound | inhibition at 25 µg/mL [1] | Dye leakage (mean ± S.E) ([2]; 45 minutes before Evans blue, control 25.77 ± 1.81, *significantly different from control, p < 0.01) | Inhibition (%) [2]
– | CC(C)Oc1ccc2c(=O)c(-c3ccccc3)coc2c1 [Ipriflavone, 7-isopropoxy isoflavone, reference compound] | 58% | – | –
3.88 | O=C(O)c1cc(Br)cc2c1NCCCC2 [Example 9, 7-Bromo2,3,4,5-tetrahydro-1H-1-benzazepine-9-carboxylic acid] | – | 17.43 ± 1.38 µg/mL | 32.3%
– | N#Cc1cc2c(c(C(=O)O)c1)NCCCC2 [Example 11 c), 7-Cyano-2,3,4,5-tetrahydro-1H-1-benzazepine-9-carboxylic acid] | 54% | – | –
– | O=C(O)c1cc2c(c(C(=O)O)c1)NCCCC2 [Example 12, 2,3,4,5-Tetrahydro-1H-1-benzazepine-7,9-di-carboxylic acid] | 84% | – | –
4.15 | O=C(O)c1cc([N+](=O)[O-])cc2c1NCCCC2 [Example 10, 7-Nitro-2,3,4,5-tetrahydro-1H-1-benzazepine-9-carboxylic acid] | – | – | –
